“Also recorded” adds a separate entry of the source. Like-named read-outs stand apart in the source and are kept apart here.
Assays:
[1] = test system: resting leg of healthy male subjects; assay: Leg haemodynamic responses to intrafemoral artery infusion of purinergic vasodilators alone and combined with tyramine; format: in vivo, human; details: for effect on increased sympathetic vasoconstrictor activity evoked by tyramine: infusion in the resting leg; for leg blood flow (LBF) during vasodilator infusion: intrafemoral artery infusion of vasodilator alone, resting leg, rest about 0.5; for leg blood flow (LBF) during vasodilator infusion / leg a-v O2 difference during vasodilator infusion / leg blood flow (LBF) during combined vasodilator and tyramine infusion / leg a-v O2 difference during combined vasodilator and tyramine infusion: mean±S.E.M.; for leg vasoconstriction caused by tyramine during vasodilator infusion: tyramine added to the infusion of the named vasodilator; for leg a-v O2 difference during vasodilator infusion: vasodilator alone; for leg blood flow (LBF) during combined vasodilator and tyramine infusion: vasodilator plus tyramine about 13.2 μmol/min; for leg a-v O2 difference during combined vasodilator and tyramine infusion: vasodilator plus tyramine; for effect of tyramine on leg vascular conductance during vasodilator infusion / effect of tyramine on LBF during vasodilator infusion: tyramine added to vasodilator infusion; for effect of tyramine on LBF during vasodilator infusion: P=0.53
Protocol: This study was performed in nine healthy male subjects from Denmark. The subjects were fully informed of any risks and discomforts associated with the experiments before giving their informed written consent to participate. The studies conformed to the code of Ethics of the World Medical Association (Declaration of Helsinki) and were approved by the Ethics Committee for Copenhagen and Frederiksberg communities.
Subjects reported to the laboratory at 8 a.m. or 1 p.m., following the ingestion of a light breakfast or lunch. Upon arrival, they rested in a supine position while three catheters were placed under local anaesthesia (1% lidocaine) into the femoral artery and vein of the right leg and in the femoral artery of the left leg using the Seldinger technique. The femoral artery and vein catheters were positioned 1-2 cm distal from the inguinal ligament. A thermistor (Edslab probe 94-0.3-2.5F) to measure venous blood temperature was inserted through the femoral venous catheter orientated in the anterograde direction for the determination of femoral venous blood flow. Femoral venous blood flow (an index of leg blood flow (LBF)) was determined by the constant infusion thermodilution technique (Andersen & Saltin, 1985 J Physiol. 366:233-49; González-Alonso et al. 2000 J Physiol. 524:603-15; Am J Physiol Heart Circ Physiol. 278(2):H321-30). LBF represents the average of two measurements made 1-2 min after the start of exercise and 1-2 min after the start of infusion of ATP, adenosine or tyramine. Arterial blood pressure was continuously monitored by a pressure transducer (Pressure Monitoring Kit, Baxter) at the level of inguinal region and calculated by integration of the pressure curve. Heart rate was determined from an electrocardiogram. All data were continuously recorded using a Powerlab system (ADInstruments, Sydney, Australia).
Leg blood flow (LBF) and mean arterial pressure (MAP) was measured during […] purinergically-induced hyperaemic conditions: (1) Intrafemoral artery infusion of adenosine (vasodilator control), (2) sequential intraarterial infusion of AMP, ADP, ATP or UTP (vasodilators), and (3), comparing the responses with the combined infusion with the vasoconstrictor drug tyramine, which evokes endogenous release of noradrenaline from sympathetic nerve endings.
Adenosine (Item Development AB, Stocksund, Sweden) was dissolved in isotonic saline (1.25 mg ml^−1) and infused at a rate of 16 μmol min^−1. AMP (Sigma) was dissolved in isotonic saline and infused at 71 μmol/min, ADP (Sigma) was dissolved in isotonic saline at […], ATP (Sigma) was dissolved in isotonic saline at 1 μmol/^min and UTP (Sigma) was dissolved in isotonic saline 1 μmol min^−1
95:2370-4; J Physiol. 547:971-6).
(§1) The combined infusion of adenosine and tyramine was to evoke a vasoconstrictor response in the resting leg of about 50%, without causing increases in arterial blood pressure, as previously documented in the Leg (Rosenmeier et al. 2004 J. Physiol. 558:351-365). Tyramine (Sigma T-2879) dissolved in isotonic saline (0.52 mg ml-1) was infused at a rate of about 13.2 μmol/min through all the tyramine trials.
The subjects first received separate infusions of adenosine, AMP, ADP, ATP or UTP for 4 min followed by combined infusions of vasodilator and tyramine for an additional 4 min.
Plasma noradrenaline and adrenaline concentrations were determined with high performance liquid chromatography with electrochemical detection (Hallman et al. 1978 Life Sci. 23(10):1049-52). Arterial and femoral haemoglobin concentration and O2 saturation were determined spectrophotometrically (OSM-3 Hemoximeter, Radiometer). PO2 was determined with the Astrup technique (ABL 5, Radiometer, Copenhagen, Denmark).
Leg vascular conductance was calculated as the quotient between LBF and mean arterial pressure. Leg O2 delivery was calculated by multiplying LBF by arterial O2 content. […]

leg blood flow [2] = details: previously registered, Rosenmeier et al. 2004; cited from earlier work
leg blood flow [3] = assay: Maximal nucleotide-induced vasodilatation at rest relative to peak LBF during maximal bicycling exercise; format: in vivo, human
Text: Maximal UTP-induced vasodilatation was investigated at rest accounted for […] of the peak LBF during maximal bicycling exercise in comparison to the 78% increase in LBF previously registered for ATP (Rosenmeier et al. 2004 J. Physiol. 558:351-365).

resting leg = assay: Tyramine infusion alone in the resting leg (separate studies); format: in vivo, human; details: tyramine about 13.2 μmol/min, no vasodilator
Protocol: as §1

[4] = vasodilator alone versus combined with tyramine

SMILES	effect on increased sympathetic vasoconstrictor activity evoked by tyramine [1]	leg blood flow (LBF) during vasodilator infusion [1] [L/min]	leg vasoconstriction caused by tyramine during vasodilator infusion [1] [%]	leg VO2, vasodilator alone versus with tyramine [1, 4]	leg a-v O2 difference during vasodilator infusion [1]	leg blood flow (LBF) during combined vasodilator and tyramine infusion [1] [L/min]	change of leg a-v O2 difference on addition of tyramine [1, 4]	leg a-v O2 difference during combined vasodilator and tyramine infusion [1] [ml l^−1]	effect of tyramine on leg vascular conductance during vasodilator infusion [1]	effect of tyramine on LBF during vasodilator infusion [1]	maximal vasodilatation as share of peak LBF during maximal bicycling exercise (leg blood flow [2]) [%]	maximal vasodilatation as share of peak LBF during maximal bicycling exercise (leg blood flow [3]) [%]	reduction of blood flow by tyramine infusion (resting leg) [%]
Nc1ncnc2c1ncn2[C@@H]1O[C@H](COP(=O)(O)OP(=O)(O)O)[C@@H](O)[C@H]1O [ADP]	does not; also recorded: substantial vasoconstrictor response	3.34 ± 0.4	30	statistically significantly different	6.0+1 ml l^−1	2.3 ± 0.3							
Nc1ncnc2c1ncn2[C@@H]1O[C@H](COP(=O)(O)O)[C@@H](O)[C@H]1O [AMP]	does not; also recorded: substantial vasoconstrictor response	3.7 ± 0.4	53		4.5±0.5 ml l^−1	1.7 ± 0.2	elevated	15.3±3.1					
Nc1ncnc2c1ncn2[C@@H]1O[C@H](COP(=O)(O)OP(=O)(O)OP(=O)(O)O)[C@@H](O)[C@H]1O [ATP]	fully blunts		0		7.9±1.7 ml l^−1		Absolutely no change; also recorded: unchanged	5.7±1.6	did not alter; also recorded: no reduction	did not alter; also recorded: no reduction	78		
O=c1ccn([C@@H]2O[C@H](COP(=O)(O)OP(=O)(O)OP(=O)(O)O)[C@@H](O)[C@H]2O)c(=O)[nH]1 [UTP]	fully blunts		0		7.1±0.9 ml l^−1		Absolutely no change; also recorded: unchanged	7.1±1.5	did not alter; also recorded: no reduction	did not alter; also recorded: no reduction		50	
Nc1ncnc2c1ncn2[C@@H]1O[C@H](CO)[C@@H](O)[C@H]1O [adenosine]	does not; also recorded: substantial vasoconstrictor response	3.8 ± 0.3	56		7.7±0.5 ml l^−1	1.7 ± 0.2	elevated	26.0±2.2					
NCCc1ccc(O)cc1 [tyramine]													44±3

Reference: patent US20090306009A1, “Modulation of the P2Y2 Receptor Pathway” (P2-SCIENCE APS, priority 2005, published 2009)
